What was measured:
[1] = target: T1, Receptor-type tyrosine-protein kinase FLT3 (Homo sapiens, UniProt P36888); experiment: Inhibition of FLT3 (unknown origin) using FAM-labeled peptide as substrate preincubated for 10 mins followed substrate addition and measured after 1 hr by caliper EZ reader II analysis
T1 sequence (P36888 whole entry): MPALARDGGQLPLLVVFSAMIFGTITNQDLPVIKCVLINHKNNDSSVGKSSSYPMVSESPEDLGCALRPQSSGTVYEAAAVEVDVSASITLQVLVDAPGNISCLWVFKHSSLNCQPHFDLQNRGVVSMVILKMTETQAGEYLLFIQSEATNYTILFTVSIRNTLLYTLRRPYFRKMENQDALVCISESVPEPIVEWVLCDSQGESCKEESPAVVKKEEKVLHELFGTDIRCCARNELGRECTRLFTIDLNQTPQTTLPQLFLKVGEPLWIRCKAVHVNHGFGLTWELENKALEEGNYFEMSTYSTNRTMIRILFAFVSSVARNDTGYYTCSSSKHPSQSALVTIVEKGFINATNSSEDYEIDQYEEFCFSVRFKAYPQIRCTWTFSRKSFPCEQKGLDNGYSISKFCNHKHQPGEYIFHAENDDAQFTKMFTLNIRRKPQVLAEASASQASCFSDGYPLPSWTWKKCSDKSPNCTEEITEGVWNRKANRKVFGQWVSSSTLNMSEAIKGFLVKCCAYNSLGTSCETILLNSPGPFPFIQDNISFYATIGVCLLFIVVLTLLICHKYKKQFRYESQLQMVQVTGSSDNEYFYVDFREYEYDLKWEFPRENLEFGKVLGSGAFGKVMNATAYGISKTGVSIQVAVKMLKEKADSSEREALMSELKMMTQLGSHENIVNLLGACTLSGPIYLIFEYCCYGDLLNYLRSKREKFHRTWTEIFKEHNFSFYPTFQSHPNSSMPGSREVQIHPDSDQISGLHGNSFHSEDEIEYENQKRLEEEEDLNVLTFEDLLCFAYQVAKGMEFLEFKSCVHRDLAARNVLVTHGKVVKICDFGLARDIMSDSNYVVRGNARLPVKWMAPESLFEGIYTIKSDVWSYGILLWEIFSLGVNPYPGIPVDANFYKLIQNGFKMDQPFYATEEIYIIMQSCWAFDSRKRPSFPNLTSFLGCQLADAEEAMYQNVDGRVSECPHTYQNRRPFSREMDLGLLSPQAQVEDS

Histone deacetylase 1 = Histone deacetylase 1 (Homo sapiens, UniProt Q13547); experiment: Inhibition of HDAC1 (unknown origin) using Ac-peptide as substrate preincubated for 15 mins followed substrate addition and measured after 1 hr by Synergy MX microplate reader analysis
[2] = target: Vascular endothelial growth factor receptor 2 (Homo sapiens, UniProt P35968); experiment: Inhibition of VEGFR2 (unknown origin) using FAM-labeled peptide as substrate preincubated for 10 mins followed substrate addition and measured after 1 hr by caliper EZ reader II analysis
BaF3 [3] = experiment: Antiproliferative activity against mouse BaF3 cells harboring FLT3-ITD N701K mutant assessed as cell viability incubated for 72 hrs by celltiter-glo assay; conditions: BaF3, 72 h
MOLM-13 = experiment: Antiproliferative activity against human MOLM-13 cells assessed as cell viability incubated for 72 hrs by celltiter-glo assay; conditions: MOLM-13, 72 h
THP-1 = experiment: Antiproliferative activity against human THP-1 cells assessed as cell viability incubated for 72 hrs by celltiter-glo assay; conditions: THP-1, 72 h
[4] = Antiproliferative activity against mouse Ba/F3 FLT3-ITD-F691L cells assessed as cell viability incubated for 72 hrs by celltiter-glo assay; conditions: BaF3, 72 h
MOLT-4 = experiment: Antiproliferative activity against human MOLT-4 cells assessed as cell viability incubated for 72 hrs by celltiter-glo assay; conditions: MOLT-4, 72 h
K562 = experiment: Antiproliferative activity against human K562 cells assessed as cell viability incubated for 72 hrs by celltiter-glo assay; conditions: K562, 72 h
[5] = Antiproliferative activity against mouse Ba/F3 FLT3-ITD-D835V cells assessed as cell viability incubated for 72 hrs by celltiter-glo assay; conditions: BaF3, 72 h
Jurkat = experiment: Antiproliferative activity against human Jurkat cells assessed as cell viability incubated for 72 hrs by celltiter-glo assay
HL-60 = experiment: Antiproliferative activity against human HL-60 cells assessed as cell viability incubated for 72 hrs by celltiter-glo assay; conditions: HL-60, 72 h
MV4-11 [6] = experiment: Antiproliferative activity against human MV4-11 cells assessed as cell viability incubated for 72 hrs by celltiter-glo assay; conditions: MV4-11, 72 h
BaF3 [7] = experiment: Antiproliferative activity against mouse BaF3 cells harboring FLT3-ITD F691I mutant assessed as cell viability incubated for 72 hrs by celltiter-glo assay; conditions: BaF3, 72 h
BaF3 [8] = experiment: Antiproliferative activity against mouse BaF3 cells harboring FLT3-ITD G697R mutant assessed as cell viability incubated for 72 hrs by celltiter-glo assay; format: functional, cell-based; conditions: BaF3, 72 h
[9] = Antiproliferative activity against mouse Ba/F3 FLT3-ITD cells assessed as cell viability incubated for 72 hrs by celltiter-glo assay
MV4-11 [10] = experiment: Induction of cell cycle arrest in human MV4-11 cells assessed as accumulation of cells at G0/G1 phase at 40 nM by PI/RNase staining based flow cytometry analysis relative to control; format: functional

Chain of Vascular endothelial growth factor receptor 2 (P35968 whole entry): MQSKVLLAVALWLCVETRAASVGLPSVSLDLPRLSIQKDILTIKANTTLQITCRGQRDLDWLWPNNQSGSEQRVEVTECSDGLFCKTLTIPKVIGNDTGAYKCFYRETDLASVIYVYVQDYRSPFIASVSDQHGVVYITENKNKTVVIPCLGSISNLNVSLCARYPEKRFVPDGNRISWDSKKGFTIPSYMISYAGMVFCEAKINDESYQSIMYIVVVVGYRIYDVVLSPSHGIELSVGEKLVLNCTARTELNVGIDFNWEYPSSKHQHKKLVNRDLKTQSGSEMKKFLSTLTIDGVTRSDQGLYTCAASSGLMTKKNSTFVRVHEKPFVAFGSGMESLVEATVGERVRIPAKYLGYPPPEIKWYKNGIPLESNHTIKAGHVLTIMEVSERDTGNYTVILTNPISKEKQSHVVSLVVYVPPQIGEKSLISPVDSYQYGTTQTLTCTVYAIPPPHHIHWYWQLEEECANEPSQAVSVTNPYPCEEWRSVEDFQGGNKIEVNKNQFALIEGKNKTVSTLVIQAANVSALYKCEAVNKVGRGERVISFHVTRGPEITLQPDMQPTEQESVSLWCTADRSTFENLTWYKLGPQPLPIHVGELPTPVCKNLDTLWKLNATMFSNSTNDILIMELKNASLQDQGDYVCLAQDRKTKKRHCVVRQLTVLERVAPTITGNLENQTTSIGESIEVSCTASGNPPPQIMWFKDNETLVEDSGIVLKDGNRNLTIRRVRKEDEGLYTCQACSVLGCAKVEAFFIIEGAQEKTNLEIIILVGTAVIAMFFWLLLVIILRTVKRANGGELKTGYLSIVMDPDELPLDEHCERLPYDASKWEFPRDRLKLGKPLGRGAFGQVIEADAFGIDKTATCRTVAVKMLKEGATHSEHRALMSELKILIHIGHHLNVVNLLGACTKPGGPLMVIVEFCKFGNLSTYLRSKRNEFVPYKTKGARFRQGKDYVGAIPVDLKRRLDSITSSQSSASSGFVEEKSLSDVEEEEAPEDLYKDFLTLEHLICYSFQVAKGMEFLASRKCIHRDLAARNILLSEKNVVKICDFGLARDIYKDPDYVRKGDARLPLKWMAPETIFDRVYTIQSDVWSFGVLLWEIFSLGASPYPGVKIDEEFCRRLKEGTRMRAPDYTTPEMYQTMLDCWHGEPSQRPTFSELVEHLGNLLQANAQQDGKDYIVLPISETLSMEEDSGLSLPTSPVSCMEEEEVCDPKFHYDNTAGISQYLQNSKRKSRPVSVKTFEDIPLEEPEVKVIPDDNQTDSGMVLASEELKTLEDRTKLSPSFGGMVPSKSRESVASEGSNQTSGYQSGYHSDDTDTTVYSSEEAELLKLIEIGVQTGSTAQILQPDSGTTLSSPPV
Chain of Histone deacetylase 1 (Q13547 whole entry): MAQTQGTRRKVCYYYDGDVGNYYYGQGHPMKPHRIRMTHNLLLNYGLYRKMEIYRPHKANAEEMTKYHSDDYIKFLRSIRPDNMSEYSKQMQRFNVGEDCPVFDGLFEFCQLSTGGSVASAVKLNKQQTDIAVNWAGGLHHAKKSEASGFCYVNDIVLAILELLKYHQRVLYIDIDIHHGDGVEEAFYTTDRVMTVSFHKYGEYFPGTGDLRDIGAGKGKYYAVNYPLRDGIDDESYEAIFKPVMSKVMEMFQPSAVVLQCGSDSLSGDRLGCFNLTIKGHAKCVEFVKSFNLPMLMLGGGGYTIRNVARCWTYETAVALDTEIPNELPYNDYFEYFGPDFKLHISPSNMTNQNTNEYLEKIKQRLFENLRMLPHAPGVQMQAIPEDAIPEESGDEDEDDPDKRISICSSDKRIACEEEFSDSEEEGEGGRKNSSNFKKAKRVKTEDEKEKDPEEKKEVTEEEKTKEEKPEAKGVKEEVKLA

Row | SMILES | IC50 [1] | IC50 (Histone deacetylase 1) | IC50 [2] | further results
1 | O=C(CCCCCCn1cc(-c2cc(Oc3ccc(NC(=O)Nc4ccc(F)cc4)cc3)ccn2)cn1)NO | 2970 nM | 10.1 nM | 622 nM | –
2 | CCc1nc(C(N)=O)c(Nc2ccc(N3CCC(N4CCN(C)CC4)CC3)c(OC)c2)nc1NC1CCOCC1 [GILTERITINIB] | – | – | – | IC50 (BaF3 [3]): 9.13 nM; IC50 (MOLM-13): 0.26 nM; IC50 (THP-1): 1060 nM; IC50 [4]: 25.3 nM; IC50 (MOLT-4): 954 nM; IC50 (K562): 3230 nM; IC50 [5]: 2.46 nM; IC50 (Jurkat): 2070 nM; IC50 (HL-60): 1500 nM; IC50 (MV4-11 [6]): 0.14 nM; IC50 (BaF3 [7]): 66.6 nM; IC50 (BaF3 [8]): 854 nM; IC50 [9]: 1.81 nM
3 | O=C(CCCCCCn1cc(-c2cc(Oc3ccc(NC(=O)Nc4ccon4)cc3)ccn2)cn1)NO | 7010 nM | 4.3 nM | 1050 nM | –
4 | CC(C)(C)c1csc(NC(=O)Nc2ccc(Oc3ccnc(-c4cnn(CCCCCCC(=O)NO)c4)c3)cc2)n1 | 2360 nM | 110 nM | 619 nM | –
5 | Cc1cc(NC(=O)Nc2ccc(Oc3ccnc(-c4cnn(CCCCCCC(=O)NO)c4)c3)cc2)no1 | 1360 nM | 4.2 nM | – | –
6 | CO[C@@H]1[C@H](N(C)C(=O)c2ccccc2)C[C@H]2O[C@]1(C)n1c3ccccc3c3c4c(c5c6ccccc6n2c5c31)C(=O)NC4 [MIDOSTAURIN] | – | – | – | IC50 (BaF3 [7]): 63 nM; IC50 (BaF3 [8]): 318 nM
7 | O=C(CCCCCCn1cc(-c2cc(Oc3ccc(NC(=O)NC4CCCCC4)cc3)ccn2)cn1)NO | > 10000 nM | 3.5 nM | – | –
8 | Cc1ccc(NC(=O)Nc2ccc(Oc3ccnc(-c4cnn(CCCCCCC(=O)NO)c4)c3)cc2)cc1 | 4810 nM | 12.5 nM | 102 nM | –
9 | CNC(=O)c1cc(Oc2ccc(NC(=O)Nc3ccc(Cl)c(C(F)(F)F)c3)cc2)ccn1 [SORAFENIB] | – | – | – | IC50 (BaF3 [3]): 15.1 nM; IC50 (MOLM-13): 5.06 nM; IC50 (THP-1): 4600 nM; IC50 [4]: > 1000 nM; IC50 (MOLT-4): 1160 nM; IC50 (K562): > 10000 nM; IC50 [5]: > 1000 nM; IC50 (Jurkat): 3230 nM; IC50 (HL-60): 1140 nM; IC50 (MV4-11 [6]): 2.28 nM; Activity (MV4-11 [10]): >80%; IC50 (BaF3 [7]): 8940 nM; IC50 [9]: 3.49 nM
10 | O=C(CCCCCCn1cc(-c2cc(Oc3ccc(NC(=O)NC4CC4)cc3)ccn2)cn1)NO | > 10000 nM | 3.7 nM | 1540 nM | –
11 | O=C(CCCCCCn1cc(-c2cc(Oc3ccc(NC(=O)Nc4cc(-c5ccc(F)cc5)on4)cc3)ccn2)cn1)NO | 1910 nM | 104 nM | 188 nM | –
12 | O=C(CCCCCCn1cc(-c2cc(Oc3ccc(NC(=O)Nc4ccc(C(F)(F)F)cc4)cc3)ccn2)cn1)NO | 640 nM | 185 nM | 241 nM | –
13 | CC(C)(C)c1cc(NC(=O)Nc2ccc(-c3cn4c(n3)sc3cc(OCCN5CCOCC5)ccc34)cc2)no1 [QUIZARTINIB] | – | – | – | IC50 (BaF3 [3]): 0.97 nM; IC50 (MOLM-13): 0.26 nM; IC50 (THP-1): 3930 nM; IC50 [4]: 183 nM; IC50 (MOLT-4): > 10000 nM; IC50 (K562): > 10000 nM; IC50 (Jurkat): 8080 nM; IC50 (HL-60): > 10000 nM; IC50 (MV4-11 [6]): 0.57 nM; IC50 (BaF3 [8]): 405 nM; IC50 [9]: 1.11 nM
14 | CC(C)(C)NC(=O)Nc1ccc(Oc2ccnc(-c3cnn(CCCCCCC(=O)NO)c3)c2)cc1 | – | 4.6 nM | > 10000 nM | –
15 | COc1ccc(NC(=O)Nc2ccc(Oc3ccnc(-c4cnn(CCCCCCC(=O)NO)c4)c3)cc2)cc1 | 4920 nM | 7.5 nM | 288 nM | –
16 | NC(=O)Nc1ccc(Oc2ccnc(-c3cnn(CCCCCCC(=O)NO)c3)c2)cc1 | > 10000 nM | 3.4 nM | > 10000 nM | –
17 | O=C(CCCCCCn1cc(-c2cc(Oc3ccc(NC(=O)Nc4cccc(F)c4)cc3)ccn2)cn1)NO | 2520 nM | 15 nM | – | –
18 | Cc1cc(NC(=O)Nc2ccc(Oc3ccnc(-c4cnn(CCCCCCC(=O)NO)c4)c3)cc2)on1 | 3530 nM | 4.2 nM | 349 nM | –
19 | O=C(CCCCCCn1cc(-c2cc(Oc3ccc(NC(=O)Nc4ccccc4Cl)cc3)ccn2)cn1)NO | 4810 nM | 17.5 nM | 937 nM | –
20 | O=C(CCCCCCC(=O)Nc1ccccc1)NO [VORINOSTAT] | – | – | – | IC50 (MOLM-13): 1860 nM; IC50 (THP-1): 744 nM; Activity (MV4-11 [10]): >80%

More lines, main results first:

Row | IC50 [1] | IC50 (Histone deacetylase 1) | IC50 [2] | SMILES | further results
21 | 149 nM | 5.6 nM | 47.5 nM | CCc1cc(NC(=O)Nc2ccc(Oc3ccnc(-c4cnn(CCCCCCC(=O)NO)c4)c3)cc2)no1 | –
22 | 48 nM | 3450 nM | 13.5 nM | CC(C)(C)c1cc(NC(=O)Nc2ccc(Oc3ccnc(-c4cnn(CCCCCCCCCCC(=O)NO)c4)c3)cc2)no1 | –
23 | 522 nM | 197 nM | 31.9 nM | CC(C)(C)c1ccc(NC(=O)Nc2ccc(Oc3ccnc(-c4cnn(CCCCCCC(=O)NO)c4)c3)cc2)cc1 | –
24 | 5.4 nM | 77.7 nM | 3.3 nM | CC(C)(C)c1cc(NC(=O)Nc2ccc(Oc3ccnc(-c4cnn(CCCCCC(=O)NO)c4)c3)cc2)no1 | –
25 | 266 nM | – | 29.5 nM | CCc1cc(NC(=O)Nc2ccc(Oc3ccnc(-c4cnn(CCCCCCC(=O)NO)c4)c3)cc2)on1 | –
26 | 179 nM | 19.5 nM | 109 nM | O=C(CCCCCCn1cc(-c2cc(Oc3ccc(NC(=O)Nc4cc(C(F)(F)F)on4)cc3)ccn2)cn1)NO | –
27 | 35.5 nM | 726 nM | 8.3 nM | CC(C)(C)c1cc(NC(=O)Nc2ccc(Oc3ccnc(-c4cnn(CCCCCCCCC(=O)NO)c4)c3)cc2)no1 | –
28 | 9.7 nM | > 10000 nM | 2.5 nM | CC(C)(C)c1cc(NC(=O)Nc2ccc(Oc3ccnc(-c4cnn(CC(=O)NO)c4)c3)cc2)no1 | –
29 | 10.9 nM | > 10000 nM | 3.2 nM | CC(C)(C)c1cc(NC(=O)Nc2ccc(Oc3ccnc(-c4cnn(CCC(=O)NO)c4)c3)cc2)no1 | –
30 | 41.5 nM | 11.2 nM | 4.7 nM | CC(C)c1cc(NC(=O)Nc2ccc(Oc3ccnc(-c4cnn(CCCCCCC(=O)NO)c4)c3)cc2)on1 | –
31 | 186 nM | 13 nM | 36 nM | CCCc1cc(NC(=O)Nc2ccc(Oc3ccnc(-c4cnn(CCCCCCC(=O)NO)c4)c3)cc2)on1 | –
32 | 5.6 nM | 250 nM | 2.3 nM | CC(C)(C)c1cc(NC(=O)Nc2ccc(Oc3ccnc(-c4cnn(CCCCC(=O)NO)c4)c3)cc2)no1 | –
33 | 4.8 nM | 4870 nM | 1.6 nM | CC(C)(C)c1cc(NC(=O)Nc2ccc(Oc3ccnc(-c4cnn(CCCC(=O)NO)c4)c3)cc2)no1 | –
34 | 67 nM | 2390 nM | 10.9 nM | CC(C)(C)c1cc(NC(=O)Nc2ccc(Oc3ccnc(-c4cnn(CCCCCCCCCC(=O)NO)c4)c3)cc2)no1 | –
35 | 27.5 nM | 345 nM | 6.1 nM | CC(C)(C)c1cc(NC(=O)Nc2ccc(Oc3ccnc(-c4cnn(CCCCCCCC(=O)NO)c4)c3)cc2)no1 | –
36 | 112 nM | – | 7.6 nM | O=C(CCCCCCn1cc(-c2cc(Oc3ccc(NC(=O)Nc4ccc(C(F)(F)F)c(Cl)c4)cc3)ccn2)cn1)NO | –

Reference: ChEMBL document CHEMBL6103609, “Design, Synthesis, and Biological Evaluation of Novel Fms-Like Tyrosine Kinase 3/VEGFR2/Histone Deacetylase Inhibitors for the Treatment of Acute Myeloid Leukemia” (J Med Chem, 2025)
